From patent US11274079B2 (DALIAN INSTITUTE OF CHEMICAL PHYSICS, CHINESE ACADEMY OF …, priority 2018, dated 2022)
Where a name gives a salt, the structure may show the parent alone.

Columns and labels:
M3 receptor = target: T1, M3 receptor (Homo sapiens, UniProt P20309); assay: DMR assay, antagonism of acetylcholine in HT-29 cells endogenously expressing the M3 receptor; type: cell-based; details: for IC50: HT-29 cells, DMR, acetylcholine 16 μM, 1 h pretreatment, time point 30 min; for antagonistic activity against the M3 receptor, in words: structure-activity comparison with parent compound
T1 construct: HT-29 cell model endogenously highly expressing the M3 receptor; endogenous in cells; host or cells: HT-29
Protocol: (§1) The present invention relates to the antagonistic activity of the compound against the muscarinic receptor, which is primarily assessed by a cell-level dynamic mass redistribution (DMR) assay method. All tests are carried out on Epic platform, wherein the target model of the muscarinic receptor M1 is the CHO-K1 ceil model stably transfecting the M1 receptor, the target model of M3 is the HT-29 cell model endogenously highly expressing the M3 receptor, and the selected probe molecule is acetylcholine. Tire probe molecule acetylcholine is dissolved in water, while all other compounds are dissolved in DMSO.
The inoculated cell plate is placed in a cell incubator for culture for 20 h until the cell growth and fusion degree reaches about 95%, and the activity assay is carried out. The culture medium is sucked from the cultured cells, the buffer salt specified by the test is added with a volume of 30 μL per orifice and is stabilized for 1 h. After the baseline is stable, a 2-min baseline is established, and different concentrations of compounds to be tested are added to test the cultured cells for 1 h.

M1 receptor = target: T2, M1 receptor (Homo sapiens, UniProt P11229); assay: DMR assay, antagonism of acetylcholine in CHO-K1 cells stably transfecting the M1 receptor; type: cell-based; details: for IC50: CHO-K1-M1 cells, DMR, acetylcholine 1 μM, 1 h pretreatment, time point 5 min; for antagonistic activity against the M1 receptor, in words: structure-activity comparison with parent compound
T2 construct: expressed in transfected cells; host or cells: CHO-K1
T2 sequence (P11229 1-460): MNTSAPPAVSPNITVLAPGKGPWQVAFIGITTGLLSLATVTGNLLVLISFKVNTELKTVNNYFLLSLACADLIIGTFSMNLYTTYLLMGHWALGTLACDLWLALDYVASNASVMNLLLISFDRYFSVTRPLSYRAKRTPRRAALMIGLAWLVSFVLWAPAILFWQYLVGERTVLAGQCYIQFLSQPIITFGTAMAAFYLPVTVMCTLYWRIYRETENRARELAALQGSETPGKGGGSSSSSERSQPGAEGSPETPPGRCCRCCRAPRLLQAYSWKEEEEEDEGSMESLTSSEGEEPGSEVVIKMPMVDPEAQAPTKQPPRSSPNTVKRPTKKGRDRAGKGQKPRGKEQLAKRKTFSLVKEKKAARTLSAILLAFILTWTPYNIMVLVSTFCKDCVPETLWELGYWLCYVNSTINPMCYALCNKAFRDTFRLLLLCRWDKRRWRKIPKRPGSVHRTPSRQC
Protocol: as §1
The inoculated cell plate is placed in a cell incubator for culture for 12 h until the cell growth and fusion degree reaches about 95%, and the activity assay is carried out. The culture medium is sucked from the cultured ceils, the buffer salt specified by the test is added with a volume of 30 μL per orifice and is stabilized for 1 h. After the baseline is stable, a 2-min baseline is established, and different concentrations of compounds to be tested are added to test the cultured cells for 1 h. After the cells are pretreated with the compounds to be tested for 1 h, the 2-min baseline is re-established, and acetylcholine having a concentration of 1 μM is added to test the cultured cells for 1 h.

guinea pigs = assay: Acetylcholine chloride/histamine spray-induced asthma, incubation period; type: in vivo, guinea pig; details: for asthma incubation period: 0.2 mM in normal saline sprayed 10 min, challenge after 10 min, recorded as 240 s if no convulsion and fall; for efficacy in asthma model, in words: 0.2 mM spray
Protocol: On the first day, guinea pigs are placed in a 38×38×38 cm (about 55 L) of home-made container with an atomizing nozzle having a diameter of about 3 cm above the side wall. Ultrasonic atomizer (YUWELL, model 402AI) is used to spray normal saline containing acetylcholine chloride (20 g/L) and histamine (1 g/L) for 15 s. The incubation period of asthma of guinea pigs (also is called asthma incubation period, which is the time from the end of the spray to asthma attack, extreme breathing difficulty until convulsion and fall) is recorded after the cessation of spraying. Animals with an incubation period of less than 120 s are qualified sensitive animals.
2. Experimental Processes
On the second day, the qualified animals are selected for experiments, wherein one group (comprising 4 guinea pigs) is used as the control group, one group (comprising 4 guinea pigs) is experimented with positive medicine […] and one group (comprising 10 guinea pigs) is experimented with the drug to be tested. The animals are placed in a container, and sprayed with normal saline, tiotropium bromide and the compound to be tested. Both tiotropium bromide and the compound to be tested are soluble in normal saline at a concentration of 0.2 mM. After spraying for 10 min, the guinea pigs are taken out and put into another container of the same size. After 10 min, normal saline containing acetylcholine chloride (20 g/L) and histamine (1 g/L) is sprayed into the container for 15 s. The incubation periods of asthma of the guinea pigs are observed and recorded. If there is no convulsion and fall after 240 s, the incubation period is recorded as 240 s.

[1] = system: isolated tracheal smooth muscle; assay: Carbachol-induced contraction of isolated tracheal strip; details: Cavia porcellus, read-out: IC50, diastolic effect on isolated tracheal smooth muscle
Excerpt: 1. Experimental Materials
2. Preparation of Tracheal Strip
The guinea pig is put to death by hammering it on the head, the chest cavity is quickly opened, and trachea is carefully isolated. […] The connective tissue and fat around the trachea are gently removed, and the trachea segment is quickly suspended and cut into tracheal strips with a blade (2-3 mm in width and 20 mm in length). […] The upper end of the tracheal strip is connected to a muscle tension transducer, and the load is adjusted to 1.5 g. The biological signal processing system is used to record the changes in muscular tension of tracheal smooth muscle. The perfusate is replaced once every 15 min, and the experiment is started after the tension is stabilized for 1 h. After each experiment, the smooth muscle is rinsed 3 to 5 times, and the next experiment is carried out after stabilization to the baseline.
3. Effects of Compounds Tested on Contraction of Isolated Tracheal Strip in Guinea Pig
After incubation of isolated tracheal for 1 h, 10 μm/L of carbachol is added to induce the minimum concentration (the concentration obtained from the dose-effect curve of carbachol) of the maximum tracheal smooth muscle contraction, and the changes in tension of the tracheal strip within 5 min are recorded. When the tension of the tracheal smooth muscle reaches the highest point, the compounds tested with a concentration of 1 nm/L are added, and the changes in tension of the tracheal strip within 5 min are recorded. […] Then, the concentration difference is decreased, that is, the concentration is increased by three or four times to repeat the above administration, which makes the tension decrease continuously to the base value (initial load). The changes in tension of the tracheal stop within 5 min are recorded. The dose-effect relationship between the compounds tested and the contractile activity of the isolated tracheal smooth muscle in the guinea pig is obtained. The curve of the changes in tension of the tracheal smooth muscle in each group is recorded and the inhibition rate is calculated. After repeated experiments, IC50 value of each compound tested is calculated by taking points respectively.
The dose-effect relationship between solvent (DMSO) control group and the contractile activity of the isolated tracheal smooth muscle in the guinea pig is recorded. Inhibition Rate=(Tension before Administration−Tension after Administration)/Tension before Administration

T1 sequence (P20309 whole entry): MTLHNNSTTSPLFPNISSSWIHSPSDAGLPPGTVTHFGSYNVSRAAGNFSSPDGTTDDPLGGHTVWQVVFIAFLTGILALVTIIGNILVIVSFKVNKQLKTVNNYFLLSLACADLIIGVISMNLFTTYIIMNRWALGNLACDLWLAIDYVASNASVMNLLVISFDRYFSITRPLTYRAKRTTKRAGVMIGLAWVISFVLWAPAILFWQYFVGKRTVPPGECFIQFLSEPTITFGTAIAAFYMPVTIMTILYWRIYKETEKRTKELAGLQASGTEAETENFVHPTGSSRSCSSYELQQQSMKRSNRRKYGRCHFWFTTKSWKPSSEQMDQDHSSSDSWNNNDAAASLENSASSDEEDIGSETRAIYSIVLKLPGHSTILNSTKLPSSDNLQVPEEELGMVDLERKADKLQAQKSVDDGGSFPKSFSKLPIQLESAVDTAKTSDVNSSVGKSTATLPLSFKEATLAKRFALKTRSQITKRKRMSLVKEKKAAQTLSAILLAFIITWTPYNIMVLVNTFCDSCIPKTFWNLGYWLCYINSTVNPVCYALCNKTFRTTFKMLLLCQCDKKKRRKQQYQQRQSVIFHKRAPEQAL

## C[N+]1(C)CCCCC1CC(c1ccccc1O)c1ccccc1O.[Br-] (centres unmarked) [I-3-2-Br, 2-[2,2-bis(2-hydroxy-phenyl)ethyl]-N,N-dimethylpiperidine Bromide]
M3 receptor
  IC50: 11 ± 3.6 nM
M1 receptor
  IC50: 43.7 ± 15.3 nM
Guinea pigs
  asthma incubation period: 233.1 ± 21.8 s
  efficacy in asthma model, in words: good efficacy

## C[N+]1(C)CCCCC1CC(c1ccccc1)c1ccccc1O.[Br-] (centres unmarked) [I-2a-1-Br, 2-[2-(2-hydroxy-phenyl)-phenethyl]-N,N-dimethylpiperidine Bromide]
M3 receptor
  IC50: 5.7 ± 1.1 nM
M1 receptor
  IC50: 8.8 ± 2.6 nM
Guinea pigs
  asthma incubation period: 228.9 ± 4.7 s
  efficacy in asthma model, in words: good efficacy

## Cc1ccc(O)c(C(CC2CCCC[N+]2(C)C)c2ccccc2)c1.[Br-] (centres unmarked) [I-4a-1-Br, 2-[2-(2-hydroxy-5-methyl-phenyl)-phenethyl]-N,N-dimethylpiperidine Bromide]
M3 receptor
  IC50: 39.3 ± 10.9 nM
M1 receptor
  IC50: 28.8 ± 11.3 nM
Guinea pigs
  asthma incubation period: 240 s
  efficacy in asthma model, in words: good efficacy

## C[N+]1(C)CCCCC1CC(c1ccccc1O)c1ccccc1O.[Br-] (centres unmarked) [I-3-1-Br, 2-[2,2-bis(2-hydroxy-phenyl)ethyl]-N,N-dimethylpiperidine Bromide]
M3 receptor
  IC50: 6 ± 1.1 nM
M1 receptor
  IC50: 18.5 ± 3.6 nM
Guinea pigs
  asthma incubation period: 240 s
  efficacy in asthma model, in words: good efficacy

## C[N+]1(C)CCCCC1CC(c1ccccc1)c1ccccc1O (centres unmarked) [I-2a-Br, 2-[2-(2-hydroxy-phenyl)-phenethyl]-N,N-dimethylpiperidine Bromide]
M3 receptor
  IC50: 33.8 ± 3.6 nM
[1]
  IC50: 6.4 nM
M1 receptor
  IC50: 53.8 ± 4.6 nM

## C[N+]1(C)CCCCC1CC(c1ccccc1O)c1ccccc1O (racemic) [I-3-Br, 2-[2,2-bis(2-hydroxy-phenyl)ethyl]-N,N-dimethylpiperidine Bromide]
M3 receptor
  IC50: 15.4 ± 2.9 nM
[1]
  IC50: 4.1 nM
M1 receptor
  IC50: 23.4 ± 6.6 nM

## C[N+]1(C)CCCCC1CC(c1ccccc1)c1ccccc1O (centres unmarked) [I-2a-I, 2-[2-(2-hydroxy-phenyl)-phenethyl]N,N-dimethylpiperidine Iodide]
M3 receptor
  IC50: 25.6 ± 1.9 nM
M1 receptor
  IC50: 16.5 ± 1.8 nM

## COc1ccccc1C(CC1CCCCN1C)c1ccccc1 (centres unmarked) [II-17]
M3 receptor
  IC50: 3420 ± 330 nM
M1 receptor
  IC50: 6700 ± 810 nM

## CC(=O)Oc1ccc(C)cc1C(CC1CCCCN1C)c1ccccc1 (centres unmarked) [II-24, 2-[2-(2-acetategroup-5-methyl-phenyl)-phenethyl]-N-methylpiperidine]
M3 receptor
  IC50: 1210 ± 120 nM
  antagonistic activity against the M3 receptor, in words: the activity is greatly decreased
M1 receptor
  IC50: 3340 ± 210 nM
  antagonistic activity against the M1 receptor, in words: the activity is greatly decreased

## Cc1ccc(O)c(C(CC2CCCC[N+]2(C)C)c2ccc(Cl)cc2)c1 (centres unmarked) [I-14, 2-[2-(4-chlorophenyl)-2-(2-hydroxy-5-methylphenyl)-ethyl]-N,N-dimethylpiperidine Bromide]
M3 receptor
  IC50: 87.2 ± 36.5 nM
M1 receptor
  IC50: 79.2 ± 36.9 nM

## CN1CCCCC1CC(c1ccccc1)c1cccs1 (centres unmarked) [II-21]
M3 receptor
  IC50: 2420 ± 330 nM
M1 receptor
  IC50: 3680 ± 810 nM

## Cc1ccc(O)c(C(CC2CCCC[N+]2(C)C)c2ccccc2)c1 (centres unmarked) [I-4B-2-Br, 2-[2-(2-hydroxy-5-methyl-phenyl)-phenethyl]-N,N-dimethylpiperidine Bromide]
M3 receptor
  IC50: 217 ± 37.9 nM
M1 receptor
  IC50: 157 ± 61.6 nM

## Cc1ccc(O)c(C(CC2CCC[N+]2(C)C)c2ccccc2)c1 (centres unmarked) [I-19, 2-[2-(2-hydroxy-5-methyl-phenyl)-phenethyl]-N,N-dimethylpyrrolidine Bromide]
M3 receptor
  IC50: 29.9 ± 4.7 nM
M1 receptor
  IC50: 41 ± 9.2 nM

## C[N+]1(C)CCCCC1CC(c1ccccc1)c1cc(F)ccc1O.[Br-] (centres unmarked) [I-10a-1, 2-[2-(2-hydroxy-5-fluorophenyl)-phenylethyl]-N,N-dimethylpiperidine bromide]
M3 receptor
  IC50: 37 ± 4.3 nM
Guinea pigs
  asthma incubation period: 240 s
  efficacy in asthma model, in words: good efficacy

## Cc1ccc(OC(=O)c2ccccc2)c(C(CC2CCCC[N+]2(C)C)c2ccccc2)c1 (centres unmarked) [I-25, 2-[2-(2-benzoate Group-5-methyl-phenyl)-phenethyl]-N,N-dimethylpiperidine Bromide]
M3 receptor
  IC50: 2310 ± 600 nM
M1 receptor
  IC50: 997 ± 60 nM

## Cc1ccc(C(CC2CCCCN2C)c2cc(C)ccc2O)cc1 (centres unmarked) [II-15, 2-[2-(4-tolyl)-2-(2-hydroxy-5-methyl-phenyl)-ethyl]-N-methylpiperidine]
M3 receptor
  IC50: 112 ± 20 nM
M1 receptor
  IC50: 65.1 ± 11.7 nM

## CCc1ccc(O)c(C(CC2CCCN2C)c2ccccc2)c1 (centres unmarked) [II-20]
M3 receptor
  IC50: 258 ± 30.4 nM
M1 receptor
  IC50: 63 ± 7.5 nM

## CCCc1ccc(O)c(C(CC2CCCC[N+]2(C)C)c2ccccc2)c1 (centres unmarked) [I-6, 2-[2-(2-hydroxy-5-propyl-phenyl)-phenethyl]-N,N-dimethylpiperidine Bromide]
M3 receptor
  IC50: 20.3 ± 3.6 nM
M1 receptor
  IC50: 133 ± 22.8 nM

## Cc1ccc(O)c(C(CC2CCCC[N+]2(C)C)c2ccccc2)c1 (single isomer, unassigned) [I-4b-Br, 2-[2-(2-hydroxy-5-methyl-phenyl)-phenethyl]-N,N-dimethylpiperidine Bromide]
M3 receptor
  IC50: 47.7 ± 11.9 nM
M1 receptor
  IC50: 61 ± 21.8 nM

## Cc1ccc(C(CC2CCCC[N+]2(C)C)c2cc(C)ccc2O)cc1 (centres unmarked) [I-15, 2-[2-(4-tolyl)-2-(2-hydroxy-5-methyl-phenyl)-ethyl]-N,N-dimethylpiperidine Bromide]
M3 receptor
  IC50: 78 ± 31 nM
M1 receptor
  IC50: 48.3 ± 11 nM

## CN1CCCCC1CC(c1ccccc1O)c1ccccc1O (racemic) [II-3, 2-[2,2-bis(2-hydroxy-phenyl)-ethyl]-N-methylpiperidine]
M3 receptor
  IC50: 13.1 ± 1.9 nM
M1 receptor
  IC50: 43.4 ± 10.6 nM

## CCc1ccc(O)c(C(CC2CCCC[N+]2(C)C)c2ccccc2)c1 (centres unmarked) [I-5-I, 2-[2-(2-hydroxy-5-ethyl-phenyl)-phenethyl]-N,N-dimethylpiperidine Iodide]
M3 receptor
  IC50: 18.8 ± 2.3 nM
M1 receptor
  IC50: 20 ± 2.3 nM

## COc1ccc(O)c(C(CC2CCCCN2C)c2ccccc2)c1 (centres unmarked) [II-9, 2-[2-(2-hydroxy-5-methoxy-phenyl)-phenethyl]-N-methylpiperidine]
M3 receptor
  IC50: 320 ± 41.4 nM
M1 receptor
  IC50: 73.2 ± 12.5 nM

## CN1CCCCC1CC(c1ccccc1O)c1ccccc1O (centres unmarked) [I-3-Cl, 2-[2,2-bis(2-hydroxyphenyl)-ethyl]-N-methylpiperidine Hydrochloride]
M3 receptor
  IC50: 66.2 ± 51.8 nM
M1 receptor
  IC50: 402 ± 185 nM

## C[N+]1(C)CCCCC1CC(c1ccccc1)c1ccccc1O (centres unmarked) [I-2a-2-Br, 2-[2-(2-hydroxy-phenyl)-phenethyl]-N,N-dimethylpiperidine Bromide]
M3 receptor
  IC50: 28.4 ± 6.1 nM
M1 receptor
  IC50: 33.8 ± 8.6 nM

## Cc1ccc(OC(=O)C(C)C)c(C(CC2CCCCN2C)c2ccccc2)c1 (centres unmarked) [II-23, 2-[2-(2-isobutyryl estergroup-5-methyl-phenyl)-phenethyl]-N-methylpiperidine]
M3 receptor
  IC50: 690 ± 160 nM
  antagonistic activity against the M3 receptor, in words: the activity is greatly decreased
M1 receptor
  IC50: 1900 ± 500 nM
  antagonistic activity against the M1 receptor, in words: the activity is greatly decreased

## CN1CCCCC1CC(c1ccccc1)c1ccccc1 (centres unmarked) [II-1, 2-(2,2-Diphenylethyl)-N-Methylpiperidine]
M3 receptor
  IC50: > 10000 nM
M1 receptor
  IC50: 3130 ± 240 nM

## Cc1ccc(OC(=O)C(C)C)c(C(CC2CCCC[N+]2(C)C)c2ccccc2)c1 (centres unmarked) [I-23, 2-[2-(2-isobutyryl estergroup-5-methyl-phenyl)-phenethyl]-N,N-dimethylpiperidine Bromide]
M3 receptor
  IC50: 790 ± 75 nM
M1 receptor
  IC50: 2530 ± 480 nM
